Literature values as cited in patent US6939965B2, “Process of manufacture of 1,3-oxathiolane nucleosides using titanium trichloride mono-isopropoxide” (Gilead Sciences, Inc., priority 1998, dated 2005).

What was measured:
HIV [1] = details: racemic mixture, compared with AZT
HIV [2] = tested on: HIV

Structure (SMILES) | activity against HIV relative to AZT (HIV [1]) | HIV activity (HIV [2])
Nc1ccn(C2CSC(CO)O2)c(=O)n1 (racemic) [BCH-189, 2-hydroxymethyl-5-(cytosin-1-yl)-1,3-oxathiolane] | approximately the sane activity against HIV as AZT | –
Nc1nc(=O)n([C@@H]2CS[C@H](CO)O2)cc1F (relative stereo) [FTC, cis-2-hydroxymethyl-5-(5-fluorocytosin-1-yl)-1,3-oxathiolane] | – | potent HIV activity
